Laboratory results from patent US20030104007A1, “Pseudopterosin compounds of Symbiodinium spp isolated from Pseudopterogorgia elisabethae” (priority 2001, published 2003).
pIC50: −log10 of the molar value.

How the values were obtained:
[1] = system: leukotriene C4 production in zymosan-stimulated murine peritoneal macrophages; assay: Leukotriene C4 production in zymosan-stimulated murine peritoneal macrophages; assay type: cell-based; conditions: read-out: IC50, inhibition of leukotriene C4 production
[2] = system: PMA-induced mouse ear edema; assay: Inhibition of PMA-induced inflammation (edema) of the mouse ear; assay type: in vivo; conditions: administered topically
Description: A test compound is topically applied in acetone to the inside pinnae of the ears of mice in a solution containing the edema-causing irritant, phorbol 12-myristate 13-acetate (PMA). PMA alone (2 μg/ear) or in combination with the test compound is applied to left ears (5 mice per treatment group) and acetone is applied to all right ears. After 3 hour 20 minute incubation, the mice are euthanized, the ears are removed, and bores are taken and weighed. Edema is measured by subtracting the weight of the right ear (acetone control) from the weight of the left ear (treated). Results are recorded as % decreases (inhibition) or % increase (potentiation) in edema relative to the PMA control group edema. Test compounds are screened at 50 or 25 μg/ear.
This signaling mechanism may be coupled to phagosome formation. The endogenous production of eicosanoids and their role in phagosome formation may be evaluated by using […] as pharmacological probes and analyzing arachidonic acid products by conventional means.

[3] = system: prostaglandin E2 production in zymosan-stimulated murine peritoneal macrophages; assay: Prostaglandin E2 production in zymosan-stimulated murine peritoneal macrophages; assay type: cell-based; conditions: read-out: IC50, inhibition of prostaglandin E2 production
Tetrahymena thermophila = Tetrahymena thermophila phagocytic activity (India ink food vacuole formation); assay type: cell-based; conditions: read-out: IC50, inhibition of phagocytic activity
Description: In Tetrahymena thermophila, PsA and elisabethadione were potent inhibitors of phagocytic activity with IC50 of 0.4 and 0.1 μM, respectively. A test compound may be assayed as follows. Log-phase Tetrahymena thermophila cultures are grown in 2% proteose peptone, 0.1% glucose at 25° C. A volume comprising 1×10^7 cells are centrifuged at 450 g for 5 minutes. The pellet is washed and resuspended in 3.15 ml of 50 mM TRIS-HCl buffer at pH 7.7. The test compound is prepared at a desired concentration in 0.4 ml volumes. For control samples, 0.4 ml of buffer is used. 0.45 ml of diluted India ink (1:25, v:v) is added to each drug preparation. At t=0, the drug/ink mixture is added to the Tetrahymena cells, and at t=10 min., […] samples of cell suspension are removed and fixed in 10% formaldehyde. At least 100 random cells from each sample are then examined in a light microscope. Phagocytic activity is assessed by calculating the ratio of cells with food vacuoles compared to the cells with no food vacuoles.

SMILES	pIC50 [1]	ED50, reducing PMA-induced mouse ear edema [2]	pIC50 [3]	pIC50 (Tetrahymena thermophila)
CC(C)=C[C@H]1C[C@H](C)[C@H]2CC[C@H](C)c3c(O[C@@H]4OC[C@@H](O)[C@H](O)[C@H]4O)c(O)c(C)c1c32 [PsA, Pseudopterosin A]	6.00	8 μg/ear	5.40	6.40
CC(C)=C[C@H]1C[C@H](C)[C@H]2CC[C@H](C)c3c(O)c(O[C@@H]4O[C@@H](C)[C@@H](O)[C@@H](O)[C@@H]4O)c(C)c1c32 [PsE, Pseudopterosin E]	–	38 μg/ear	–	–
CC(C)=CCC[C@H](C)[C@H]1CC[C@H](C)C2=C1C(=O)C(C)=C(O)C2=O [elisabethadione]	–	–	–	7.00
